Reference: ChEMBL document CHEMBL1158308, “Three new adjacent bis-tetrahydrofuran acetogenins with four hydroxyl groups from Asimina triloba” (J Nat Prod, 1996)
≈ marks a conversion by molar mass, not a printed value.

Experiments:
PC-3 = test: Cytotoxicity against human PC3 cells after 7 days by MTT assay; type: functional; details: PC-3, 168 h, read-out: ED50 (the source's name)
MCF7 = test: Cytotoxicity against human MCF7 cells after 7 days by MTT assay; type: functional; details: for EC50: Homo sapiens, MCF7, 168 h, read-out: ED50 (the source's name)
A549 = test: Cytotoxicity against human A549 cells after 7 days by MTT assay; type: functional; details: for EC50: Homo sapiens, A549, 168 h, read-out: ED50 (the source's name)
A498 = test: Cytotoxicity against human A498 cells after 7 days by MTT assay; type: functional; details: A498, 168 h, read-out: ED50 (the source's name)
HT-29 = test: Cytotoxicity against human HT29 cells after 7 days by MTT assay; type: functional; details: for EC50: Homo sapiens, HT-29, 168 h, read-out: ED50 (the source's name)
MIA PaCa-2 = test: Cytotoxicity against human MIAPaCa2 cells after 7 days by MTT assay; type: functional; details: MIA PaCa-2, 168 h, read-out: ED50 (the source's name)
Artemia salina = test: Toxicity to Artemia salina; type: organism-based; details: in vivo

Row | Compound | EC50 (PC-3) | EC50 (MCF7) | EC50 (A549) | EC50 (A498) | EC50 (HT-29) | EC50 (MIA PaCa-2) | LC50 (Artemia salina) | ED50 (MCF7) | ED50 (A549) | ED50 (HT-29)
1 | CCCCCCCCCC[C@@H](O)[C@H]1CC[C@H]([C@H]2CC[C@H]([C@H](O)CCCC[C@H](O)CCCCC[C@@H](O)CC3=C[C@H](C)OC3=O)O2)O1 | 0.527 µg/mL (≈ 0.825 µM) | 0.327 µg/mL (≈ 0.512 µM) | 0.673 µg/mL (≈ 1.05 µM) | > 1 µg/mL | 0.00758 µg/mL (≈ 0.0119 µM) | > 1 µg/mL | 4.3 ×10⁻¹ ppm | – | – | –
2 | CCCCCCCCCC[C@@H](O)[C@H]1CC[C@@H]([C@H]2CC[C@H]([C@H](O)CCCC[C@H](O)CCCCC[C@@H](O)CC3=C[C@H](C)OC3=O)O2)O1 | 0.378 µg/mL (≈ 0.592 µM) | – | – | 0.01 µg/mL (≈ 0.0157 µM) | 1.39 µg/mL (≈ 2.18 µM) | 0.196 µg/mL (≈ 0.307 µM) | 2.6 ×10⁻¹ ppm | 1.88 ×10⁻⁸ ug/ml | 1 ×10⁻⁸ ug/ml | –
3 | CCCCCCCCCCC(O)C1CCC(C2CCC(C(O)CCCCCCCC[C@H](O)CC3=C[C@@H](C)OC3=O)O2)O1 (stereo partly drawn) [ASIMICIN] | – | 0.852 µg/mL (≈ 1.43 µM) | – | – | – | – | – | – | 8.43 ×10⁻⁴ ug/ml | <1 ×10⁻¹² ug/ml
4 | CCCCCCCCCC[C@@H](O)[C@H]1CC[C@H]([C@H]2CC[C@H]([C@H](O)CCCCCCCCCC[C@@H](O)CC3=C[C@H](C)OC3=O)O2)O1 [ASIMICIN] | – | – | – | – | – | – | 2.7 ×10⁻² ppm | – | – | –
5 | CCCCCCCCCC[C@@H](O)[C@H]1CC[C@H]([C@H]2CC[C@H]([C@H](O)CCCC[C@H](O)CCCCCCCC3=C[C@H](C)OC3=O)O2)O1 [ASIMIN] | – | – | – | – | – | – | 4.6 ×10⁻³ ppm | 9.57 ×10⁻⁹ ug/ml | 7.99 ×10⁻⁹ ug/ml | <1 ×10⁻¹² ug/ml
6 | CCCCCCCCCC[C@H](O)[C@H]1CC[C@H]([C@H]2CC[C@H]([C@H](O)CCCCCCCCCCCCC3=C[C@H](C)OC3=O)O2)O1 [BULLANIN] | – | – | – | – | – | – | 6 ×10⁻³ ppm | 3.22 ×10⁻¹⁴ ug/ml | 3.11 ×10⁻¹⁴ ug/ml | 4.77 ×10⁻¹⁴ ug/ml
7 | CC[C@H](O)[C@H](O)CCCCCC[C@H](O)[C@H]1CC[C@H]([C@H]2CC[C@H]([C@H](O)CCCCCCCCCCCCC3=C[C@H](C)OC3=O)O2)O1 [BULLATETROCIN] | > 1 µg/mL | 0.497 µg/mL (≈ 0.778 µM) | 0.352 µg/mL (≈ 0.551 µM) | > 1 µg/mL | – | > 1 µg/mL | 3.1 ×10⁻¹ ppm | – | – | 3.32 ×10⁻⁵ ug/ml
8 | COc1cccc2c1C(=O)c1c(O)c3c(c(O)c1C2=O)C[C@@](O)(C(=O)CO)C[C@@H]3O[C@H]1C[C@H](N)[C@H](O)[C@H](C)O1 [DOXORUBICIN] | 0.0189 µg/mL (≈ 0.0348 µM) | 0.17 µg/mL (≈ 0.313 µM) | 0.00178 µg/mL (≈ 0.00327 µM) | 0.00178 µg/mL (≈ 0.00327 µM) | 0.00428 µg/mL (≈ 0.00787 µM) | 0.00243 µg/mL (≈ 0.00447 µM) | 8 ×10⁻² ppm | – | – | –
9 | CCCCCCCCCC[C@@H](O)[C@H]1CC[C@@H]([C@H]2CC[C@H]([C@H](O)CCCCCCCCCC[C@@H](O)CC3=C[C@H](C)OC3=O)O2)O1 [TRILOBACIN] | – | 0.339 µg/mL (≈ 0.544 µM) | – | – | – | – | 8.7 ×10⁻³ ppm | – | 8.02 ×10⁻⁴ ug/ml | <1 ×10⁻¹² ug/ml
10 | CCCCCCCCCC[C@@H](O)[C@H]1CC[C@@H]([C@H]2CC[C@H]([C@H](O)CCC[C@H](O)CCCCCCCC3=C[C@H](C)OC3=O)O2)O1 [TRILOBIN] | – | – | – | – | – | – | 9.7 ×10⁻³ ppm | 2.95 ×10⁻¹² ug/ml | 5.71 ×10⁻¹² ug/ml | 2.2 ×10⁻⁸ ug/ml
